Data reported in patent US7803930B2, “Antisense modulation of apolipoprotein B-expression” (Isis Pharmaceuticals, Inc., priority 2002, dated 2010).
In the oligonucleotide strings, read from the 5' end, every base follows the letter of its sugar. An asterisk marks phosphorothioate; unmarked linkages are phosphodiester. Other units and linkages are bracketed, terminal groups are in braces. A string of capitals states the bases alone. e = 2'-O-(2-methoxyethyl) (MOE); [5mC] = 5-methylcytosine; d = 2'-deoxy (DNA); r = 2'-OH (RNA)

Experiments:
Type in all cases: cell-based
[1] = system: human apolipoprotein B mRNA; assay: Inhibition of apolipoprotein B mRNA by dsRNAs in HepG2 cells; settings: 150 nM with 3.75 μg/mL LIPOFECTIN
Experimental: In accordance with the present invention, a series of nucleic acid duplexes comprising the antisense compounds of the present invention and their complements were designed to target apolipoprotein B and are shown in Table 42. All compounds in Table 42 are oligoribonucleotides 20 nucleotides in length with phosphodiester internucleoside linkages (backbones) throughout the compound. The compounds were prepared with blunt ends. […] These sequences are shown to contain uracil (U) but one of skill in the art will appreciate that uracil (U) is generally replaced by thymine (T) in DNA sequences. “Targer site” indicates the first (5′-most) nucleotide number on the particular target sequence to which the compound binds. A subset of the compounds in Table 42 are the RNA equivalents of DNA antisense oligonucleotides described herein, and, where applicable, this is noted by the ISIS # of the DNA oligonucleotide in the column “RNA equivalent of ISIS #”.
The dsRNA compounds in Table 42 were tested for their effects on human apolipoprotein mRNA in HepG2 cells. HepG2 cells were treated with 100 nM of dsRNA compounds mixed with 5 μg/mL LIPOFECTIN (Invitrogen Corporation, Carlsbad, Calif.) for a period of 16 hours. In the same experiment, HepG2 cells were also treated with 150 nM of subset of the antisense oligonucleotides described herein mixed with 3.75 μg/mL LIPOFECTIN; these compounds are listed in Table 43. Control oligonucleotides included ISIS 18078 ([…], SEQ ID NO: 888). ISIS 18078 is a chimeric oligonucleotide (“gapmer”) 20 nucleotides in length, composed of a central “gap” region consisting of 9 2′-deoxynucleotides, which is flanked on the 5′ and 3′ ends by a five-nucleotide “wing” and a six-nucleotide “wing”, respectively. The wings are composed of 2′-methoxyethyl (2′-MOE)nucleotides. The internucleoside (backbone) linkages are phosphorothioate (P═S) throughout the oligonucleotide. All cytidines are 5-methylcytidines. The duplex of ISIS 263188 ([…], SEQ ID NO: 889) and its complement was also used as a control. ISIS 263188 is an oligoribonucleotide 21 nucleotides in length with the 2 nucleotides on the 3′ end being oligodeoxyribonucleotides (TT) and with phosphodiester internucleoside linkages (backbones) throughout the compound.
Cells were treated for 4 hours, after which human apolipoprotein B mRNA expression was measured as described by examples herein. Results were normalized to untreated control cells, which were not treated with LIPOFECTIN or oligonucleotide.

[2] = system: human apolipoprotein B mRNA; assay: Inhibition of human apolipoprotein B mRNA levels in HepG2 cells, quantitative real-time PCR; settings: for % INHIB (inhibition of human apolipoprotein B mRNA levels): HepG2 cells treated with 150 nM of compound, averages from two experiments, quantitative real-time PCR; for % inhibition 37 nM / % inhibition 75 nM / % inhibition 150 nM / % inhibition 300 nM: Table 19 dose response, HepG2 cells, normalized to untreated control
Method in brief: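 Apolipoprotein B transcript was quantified by one-step TaqMan RT-PCR, normalized to GAPDH or RiboGreen RNA, and expressed as percent inhibition against an untreated-sample standard curve. HepG2 cells were harvested 16-24 h after oligonucleotide exposure, which was delivered with 3.75 μg/mL Lipofectin over 4-7 h at 80% confluency.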

[3] = system: human apolipoprotein B mRNA; assay: Apolipoprotein B mRNA in primary human hepatocytes, real-time PCR
Experimental: In accordance with the present invention, antisense oligonucleotides targeted to human apolipoprotein B were tested in dose response studies in primary human hepatocytes. Pre-plated primary human hepatocytes were purchased from Invitro Technologies (Baltimore, Md.). Cells were cultured in high-glucose DMEM (Invitrogen Corporation, Carlsbad, Calif.) supplemented with 10% fetal bovine serum (Invitrogen Corporation, Carlsbad, Calif.), 100 units/mL and 100 μg/mL streptomycin (Invitrogen Corporation, Carlsbad, Calif.).
Human primary hepatocytes were treated with ISIS 301012 (SEQ ID NO: 247) at 10, 50, 150 or 300 nM. Untreated cells and cells treated with the scrambled control oligonucleotide ISIS 113529 ([…], SEQ ID NO: 859) served as two groups of control cells. ISIS 113529 is a chimeric oligonucleotide (“gapmer”) 20 nucleotides in length, composed of a central “gap” region consisting of ten 2′-deoxynucleotides, which is flanked on both sides (5′ and 3′ directions) by five-nucleotide “wings”. The wings are composed of 2′-methoxyethyl (2′-MOE)nucleotides. The internucleoside (backbone) linkages are phosphorothioate (P═S) throughout the oligonucleotide. All cytidines are 5-methylcytidines.
(§1) Oligonucleotides were introduced into cells through LIPOFECTIN-mediated transfection as described by other examples herein. Cells were harvested both 24 and 48 hours after treatment with oligonucleotide, and both RNA and protein were isolated. Additionally, the culture media from treated cells was collected for ELISA analysis of apolipoprotein B protein secretion.
Apolipoprotein B mRNA expression was determined by real-time PCR of RNA samples as described by other examples herein. Each result represents 6 experiments.
(§2) An additional experiment was performed to test the effects of ISIS 271009 (SEQ ID NO: 319), ISIS 281625 (SEQ ID NO: 224) and ISIS 301027 (SEQ ID NO: 262) on human apolipoprotein B mRNA in human primary hepatocytes. Cells were cultured as described herein and treated with 5, 10, 50 or 150 nM of ISIS 271009, ISIS 281625 or ISIS 301027 for a period of 24 hours. The control oligonucleotides ISIS 13650 (SEQ ID NO: 806) and ISIS 113529 (SEQ ID NO: 859) were used at 50 or 150 nM. Human apolipoprotein B mRNA expression was evaluated by real-time PCR as described by other examples herein. Apolipoprotein B protein secreted into the cultured cell media was measured in the samples treated with 50 and 150 nM of oligonucleotide, using a target protein specific ELISA kit (ALerCHEK Inc., Portland, Me.).

[4] = system: apolipoprotein B protein; assay: Apolipoprotein B protein secreted from primary human hepatocytes, ELISA; settings: for % Inhibition of apolipoprotein B protein secretion: 24 hours
Experimental: as §1
Apolipoprotein secreted from into the cultured cell media was measured in the samples treated with 50 and 150 nM of oligonucleotide, using a target protein specific ELISA kit (ALerCHEK Inc., Portland, Me.). Each result represents 3 experiments.
as §2

[5] = system: human apolipoprotein(a) mRNA; assay: Apolipoprotein(a) mRNA expression in primary human hepatocytes, real-time PCR; settings: human primary hepatocytes; 5, 10, 50 or 150 nM, 24 hours
Experimental: Primary human hepatocytes (InVitro Technologies, Baltimore, Md.), cultured and transfected as described herein, were treated with 5, 10, 50 or 150 nM of ISIS 271009 (SEQ ID NO: 319), 281625 (SEQ ID NO: 224), 301012 (SEQ ID NO: 247) or 301027 (SEQ ID NO: 262). Cells were also treated with 50 or 150 nM of the control oligonucleotides ISIS 113529 (SEQ ID NO: 859) or ISIS 13650 (SEQ ID NO: 806). Untreated cells served as a control. Following 24 hours of oligonucleotide treatment, apolipoprotein(a) mRNA expression was measured by quantitative real-time PCR as described in other examples herein.
Probes and primers to human apolipoprotein(a) were designed to hybridize to a human apolipoprotein(a) sequence, using published sequence information (GenBank accession number NM_005577.1, incorporated herein as SEQ ID NO: 860). For human apolipoprotein(a) the PCR primers were: […]
forward primer: […] (SEQ ID NO: 861)
reverse primer: TGCGTCTGAGCATTGCGT (SEQ ID NO: 862) and the PCR probe was: FAM-[…]-TAMRA (SEQ ID NO: 863) where FAM is the fluorescent dye and TAMRA is the quencher dye.
Data are the average of three experiments and are expressed as percent inhibition relative to untreated controls.

[6] = system: Cynomolgous monkey apolipoprotein B mRNA; assay: Apolipoprotein B mRNA in primary Cynomolgous monkey hepatocytes, real-time PCR; settings: Cynomolgous monkey primary hepatocytes; 10, 50 and 150 nM, 24 hours
Experimental: Antisense inhibition by ISIS 301012 was compared to that of ISIS 326358, which is a perfect match to the Cynomolgous monkey apolipoprotein B sequence to which ISIS 301012 hybridizes. The compounds were analyzed for their effect on Cynomolgous monkey apolipoprotein B mRNA levels in primary Cynomolgous monkey hepatocytes purchased from In Vitro Technologies ([…].). Pre-plated primary Cynonomolgous monkey hepatocytes were purchased from InVitro Technologies (Baltimore, Md.). Cells were cultured in high-glucose DMEM (Invitrogen Corporation, Carlsbad, Calif.) supplemented with 10% fetal bovine serum (Invitrogen Corporation, Carlsbad, Calif.), 100 units/mL and 100 μg/mL streptomycin (Invitrogen Corporation, Carlsbad, Calif.).
Primary Cynomolgous monkey hepatocytes were treated with 10, 50, 150 or 300 nM of antisense oligonucleotides for 48 hours. ISIS 113529 (SEQ ID NO: 859) was used as a control oligonucleotide. Untreated cells also served as a control. Cynomolgous monkey apolipoprotein B mRNA levels were quantitated by real-time PCR using the human apolipoprotein B and GAPDH primers and probes described by other examples herein. The results, shown in Table 44, are the average of 6 experiments and are expressed as percent inhibition of apolipoprotein B mRNA normalized to untreated control cells.
In a further embodiment of the invention, antisense inhibition by ISIS 281625 was compared to that by ISIS 315089, which is a perfect match to the Cynomolgous monkey apolipoprotein B sequence to which ISIS 281625 hybridizes. Primary Cynomolgous monkey hepatocytes, cultured as described herein, were treated with 10, 50, 150 or 300 nM of ISIS 315089 or ISIS 281625 for 24 hours. Cells were treated with the control oligonucleotide ISIS 13650 (SEQ ID NO: 806) at 150 and 300 nM or ISIS 113529 (SEQ ID NO: 859) at 300 nM. Untreated cells also served as a control. Cynomolgous monkey apolipoprotein B mRNA levels in primary Cynomolgous monkey hepatocytes was quantitated using real-time PCR with human primers and probe as described by other examples herein. The results, shown in Table 46, are the average of 3 experiments and are expressed as percent inhibition of apolipoprotein B mRNA normalized to untreated control cells.
ISIS 271009 (SEQ ID NO: 319) and ISIS 301027 (SEQ ID NO: 262) were also tested for their effects on apolipoprotein B mRNA and protein expression in Cynomolgous primary hepatoctyes. Cells, cultured as described herein, were treated with 10, 50 and 150 nM of ISIS 271009 or ISIS 301027 for 24 hours. Cells were treated with the control oligonucleotide ISIS 113529 (SEQ ID NO: 859) at 150 nM. Untreated cells also served as a control. Cynomolgous monkey apolipoprotein B mRNA levels in primary Cynomolgous monkey hepatocytes was quantitated using real-time PCR with human primers and probe as described by other examples herein. The results, shown in Table 48, are the average of 2 experiments and are expressed as percent inhibition of apolipoprotein B mRNA normalized to untreated control cells.

Substance: 263188 (rCrUrUrCrUrGrGrCrArUrCrCrGrGrUrUrUrArGdTdT; siRNA) [compound 263188]
- % Inhibition of apolipoprotein B mRNA [1]: 26%

Substance: 301038 (eG*e[5mC]*e[5mC]*eA*eG*d[5mC]*dT*dT*dT*dG*dG*dT*dG*d[5mC]*dA*eG*eG*eT*e[5mC]*e[5mC]; antisense) [compound 301038]
- % INHIB (inhibition of human apolipoprotein B mRNA levels) [2]: 86%
- % Inhibition of apolipoprotein B mRNA [1]: 84%

Substance: 301028 (eG*eG*e[5mC]*eT*e[5mC]*dA*d[5mC]*dT*dG*dT*dA*dT*dG*dG*dT*eT*eT*eT*eA*eT; antisense) [compound 301028]
- % INHIB (inhibition of human apolipoprotein B mRNA levels) [2]: 93%
- % inhibition 37 nM [2]: 70%
- % inhibition 75 nM [2]: 79%
- % inhibition 150 nM [2]: 85%
- % inhibition 300 nM [2]: 92%
- % Inhibition of apolipoprotein B mRNA [1]: 85%

Substance: 301014 (e[5mC]*eA*eG*e[5mC]*e[5mC]*d[5mC]*d[5mC]*dG*d[5mC]*dA*dG*dG*dT*d[5mC]*d[5mC]*e[5mC]*eG*eG*eT*eG; antisense) [compound 301014]
- % INHIB (inhibition of human apolipoprotein B mRNA levels) [2]: 88%
- % inhibition 37 nM [2]: 75%
- % inhibition 75 nM [2]: 90%
- % inhibition 150 nM [2]: 96%
- % inhibition 300 nM [2]: 98%
- % Inhibition of apolipoprotein B mRNA [1]: 88%

Substance: GCCTCAGTCTGCTTCGCGCC (2'-MOE gapmer, further chemistry not given here) [ISIS 271009]
- % Inhibition of apolipoprotein B mRNA expression ([3]; 5 nM, 24 hours, "+" = expression increased): +4%
- % Inhibition of apolipoprotein B mRNA expression ([3]; 10 nM, 24 hours (Table 37)): 5%
- % Inhibition of apolipoprotein B mRNA expression ([3]; 50 nM, 24 hours (Table 37)): 52%
- % Inhibition of apolipoprotein B mRNA expression ([3]; 150 nM, 24 hours (Table 37)): 81%
- apolipoprotein B mRNA expression ([3]; 5, 10, 50 or 150 nM, 24 hours): inhibit apolipoprotein B mRNA expression in a dose-dependent manner
- % Inhibition of apolipoprotein B protein secretion ([4]; 50 nM): 17%
- % Inhibition of apolipoprotein B protein secretion ([4]; 150 nM, "+" = increased): 32%
- secretion of apolipoprotein B protein from cells (ELISA) ([4]; 50 and 150 nM): inhibit the secretion of apolipoprotein B protein from cells in a dose-dependent manner
- expression of apolipoprotein(a) mRNA [5]: inhibited apolipoprotein(a) expression at the highest dose
- inhibition of apolipoprotein B mRNA expression [6]: in a dose-dependent manner

Substance: 301021 (eG*eG*eT*e[5mC]*e[5mC]*dA*dT*d[5mC]*dG*d[5mC]*d[5mC]*dA*dG*d[5mC]*dT*eG*e[5mC]*eG*eG*eT; antisense) [compound 301021]
- % INHIB (inhibition of human apolipoprotein B mRNA levels) [2]: 89%
- % Inhibition of apolipoprotein B mRNA [1]: 67%

Substance: 18078 (antisense eG*eT*eG*e[5mC]*eG*d[5mC]*dG*d[5mC]*dG*dA*dG*d[5mC]*d[5mC]*d[5mC]*eG*eA*eA*eA*eT*e[5mC]) [compound 18078]
- % Inhibition of apolipoprotein B mRNA [1]: 13%
